According to US9856511B2, “Protease deubiquitinating inhibitor screening” (priority 2011, dated 2018):

Key:
[1] = test system: FaDu head and neck carcinoma; assay: FaDu head and neck carcinoma xenograft in SCID mice; type: in vivo; conditions: plasma
Protocol: In order to investigate the effect of b-AP15 on tumor growth in vivo, the compound was administered to mice bearing either a human tumor or mouse xenografts. FaDu head and neck carcinoma were chosen as a SCID mouse xenograft both as a model for a p53mut tumor and since this model is suitable for studies using circulating cell death biomarkers (30). Significant inhibition of FaDu tumor growth was observed following daily treatment with b-AP15 (treated/control tumor volume, T/C=0.4, p=<0.001). Similarly b-AP15 (day on/2 day off schedule) inhibited tumor growth in C57BL/6J mice bearing lung carcinomas (T/C=0.16, p=<0.01). […] To examine whether b-AP15 promotes tumor cell death in vivo, plasma levels of cytokeratin-18 (CK18) were analyzed. […] To investigate the ability of b-AP15 to inhibit proteasome deubiquitination in vivo, accumulation of poly-ubiquitin conjugates was analyzed by means of antibodies specific for K48 linked polyubiquitin chains. Histological analysis of treated tumors confirmed the accumulation of poly-ubiquitin conjugates. […]
Animal experiments were conducted in full accordance with Swedish governmental statutory regulations on animal welfare under permission from local ethical committees. […] All mice were monitored and weighed daily. […] After injection, tumor growth was measured daily with calipers and the tumor volume calculated by the formula L=W^2=0.44. […]

[2] = test system: cellular DUB activity (HCT-116 cells); assay: Cellular DUB activity, Ub-AMC cleavage in lysates of treated cells; type: cell-based; conditions: b-AP15 treated cells
Excerpt: b-AP15 comprises an α-β dienone entity with two sterically accessible β carbons. A structurally similar pharmacophore has been earlier described to be comprised by a class of ubiquitin isopeptidase inhibitors (21). […] In the opinion of the present inventors the similarities in pharmacophore structure and the data showing that b-AP15 inhibits proteasome activity independent of the 20S CP indicate that b-AP15 represents a novel class of proteasome inhibitors that block the deubiquitinating activity of the 19S RP.
HTC-116 cells were treated for 3 h with b-AP15 (1 μM) (FIG. 10). Lysates treated with 10 mM N-ethylmaleimide (NEM) were included as a control for total DUB inhibition. DUB activity was determined from cell lysates by measuring cleavage of the fluorogenic substrate ubiquitin-7-amido-4-methylcoumarin (Ub-AMC).

19S RP = target: T1, 19S RP (Homo sapiens, UniProt P54578+Q9Y5K5); assay: Ubiquitin chain disassembly of K48/K63 linked ubiquitin tetramers by 19S RP; type: biochemical
T1 construct: purchased Boston Biochem E-366
Protocol: To this end the ability of b-AP15 to inhibit cleavage of recombinant ubiquitin-GFP was assessed. Recombinant ubiquitin-GFP is a substrate for 19S RP DUB activity (22). […] The type of ubiquitin bonds present in the polyubiquitin chain determines the fate of an ubiquitin-modified substrate. K48 linked polyubiquitin chains generally targets conjoined proteins for degradation (23), whereas K63 linked chains are involved in non-proteolytic roles including DNA repair (24) and mitotic chromosome segregation (25). […] The inhibition of ubiquitin chain disassembly observed could account for the accumulation of high molecular weight ubiquitin conjugates in b-AP15 treated cells.
The recombinant Ub-GFP plasmid pet19b Ub-M-GFP was generated as described (42). In brief recombinant Ub-GFP was purified from BL21 E. coli cells by His affinity purification. For cleavage assays 19S RP (25 nM) was incubated with 10 mM NEM, 250 μM TPEN or 50 μM b-AP15 for 10 min followed by the addition of recombinant Ub-GFP (200 nM). […] The level of Ub-GFP cleavage or ubiquitin disassembly was determined by immunoblotting with anti ubiquitin antibodies. […] The cleavage of ubiquitinated Hdm2 substrate and ubiquitinated Hdm2 was determined by immunoblotting with anti-Hdm2 antibodies. […]

**Q.** With `C=CC(=O)N1C/C(=C\c2ccc([N+](=O)[O-])cc2)C(=O)/C(=C/c2ccc([N+](=O)[O-])cc2)C1` [b-AP15] as the compound, how does the “levels of human CK18 derived from FaDu tumors in the circulation” value ([1]; total CK18, p=0.01) read?
**A.** significant increase

**Q.** And the “levels of caspase cleaved CK18 (CK18-Asp396) in circulation” value ([1]; compared with total levels)?
**A.** increased moderately

**Q.** What about the “cellular DUB activity (Ub-AMC cleavage)” value [2] of the same compound?
**A.** no reduction in Ub-AMC cleavage

**Q.** What about the “19S RP processing of K48 and K63 linked ubiquitin tetramers” value (19S RP) of the same compound?
**A.** inhibited 19S RP processing of both K48 and K63 linked ubiquitin tetramers
